Measurements from US20230390267A1, “TREATMENT REGIMENS FOR EARLY IDIOPATHIC PARKINSON'S DISEASE” (BIAL - PORTELA & CA., S.A., priority 2020, published 2023).
Like-named read-outs stand apart in the source and are kept apart here.

Assays:
COMT activity in brain = details: cited from earlier work
[1] = tested on: PD patients with motor fluctuations; details: cited from earlier work; for mean treatment effect versus placebo on absolute daily OFF-time: double-blind
[2] = tested on: patients with early idiopathic Parkinson's disease treated with levodopa/DDCI, with no signs of motor complications; experiment: EPSILON Phase III double-blind placebo-controlled study, efficacy; assay type: in vivo, human
Excerpt: The primary endpoint was the change from baseline to end of double-blind period in MDS-UPDRS Part III (motor) scores, and secondary outcomes assessed non-motor symptoms, quality of life and global clinical impressions of change.
Subjects were between 30 and 80 years of age, inclusive, diagnosed with early idiopathic Parkinson's disease according to the United Kingdom Parkinson's Disease Society Brain Bank Clinical Diagnostic Criteria within the previous 5 years, with disease severity stage 1-2.5 (according to modified Hoehn & Yahr staging) and a MDS-UPDRS Part III score>20. Alternatively, the subjects were diagnosed with early idiopathic Parkinson's disease according to the […] within the previous 5 years, with disease severity stage 1-2.5 (according to modified Hoehn & Yahr staging) and a MDS-UPDRS Part III score>20.
322 subjects completed the double-blind phase (FIG. 10).
Study treatment was administered in combination with the subject's existing treatment of levodopa/DDCI.
The primary efficacy parameter, change from baseline (Visit 2) in MDS-UPDRS Part III total score at the end of the double-blind period (Visit 9), was analyzed using a Mixed Model Repeated Measures (MMRM) approach with fixed effects for baseline, center/country, (randomized) treatment, visit, treatment by visit interaction and baseline by visit interaction, and subject as a random effect. Difference between treatment groups (opicapone versus placebo) was estimated from the model.
A similar MMRM analysis used for the primary endpoint was used for relevant secondary efficacy endpoints in the double-blind period. The secondary endpoints included: • Change from baseline (Visit 2) to post-baseline visits during the double-blind trial in: • MDS-UPDRS scores: Parts I, II, III and IV, and Part II+III total • Modified Hoehn & Yahr staging total score during maximum ‘ON’ response • Schwab and England scale score • Parkinson's Disease Sleep Scale 2 (PDSS-2) total score • MDS-Non-motor Symptom Scale (MDS-NMSS) total and subdomain scores • Parkinson's Disease Questionnaire (PDQ-39) total and subdomain scores • 9-item Wearing-off questionnaire (WOQ9) total and sub-section (motor and non-motor) scores • Clinical Global Impression of Improvement (CGI-I) • Patient's Global Impression of Improvement (PGI-I)
The proportion of subjects with an improvement from baseline in CGI-I (preferably relative to before the beginning of treatment) and PGI-I (preferably relative to their admission to the study) scores at the end of the double blind period (Visit 9) endpoint was analysed using logistic regression, with (randomized) treatment included in the model.

[3] = tested on: PD patients with motor fluctuations; details: cited from earlier work
[4] = oral opicapone with levodopa; evident 24 hours after drug administration; cited from earlier work
[5] = tested on: patients with early idiopathic Parkinson's disease treated with levodopa/DDCI, with no signs of motor complications; details: human, in vivo, 24 weeks
Excerpt: The term “treatment-emergent adverse event” is defined as any event not present before exposure to the study drug or any event already present that worsens in either intensity or frequency after first intake of study drug until 2 weeks after last intake of the study drug.
The factors evaluated include: • Treatment-emergent adverse events (TEAEs) including serious adverse events (SAEs) • Laboratory safety tests (biochemistry, hematology, coagulation and urinalysis) • Physical and neurological examinations • Vital signs • 12-lead ECG readings • Columbia-Suicide Severity Rating Scale (C-SSRS) • Modified Minnesota Impulsive Disorders Interview (mMIDI)

[6] = tested on: MPTP treated parkinsonian primates; details: in vivo; cited from earlier work

Cc1c(Cl)c(C)[n+]([O-])c(Cl)c1-c1noc(-c2cc(O)c(O)c([N+](=O)[O-])c2)n1 [opicapone, 2,5-dichloro-3-[5-(3,4-dihydroxy-5-nitrophenyl)-1,2,4-oxadiazol-3-yl]-4,6-dimethylpyridine 1-oxide]
effect on COMT activity in brain (COMT activity in brain): does not appear to have any effect
OFF-time change from baseline at the end of the open-label phase ([1]; group that switched from placebo to opicapone): 114.7 min
mean treatment effect versus placebo on absolute daily OFF-time ([1]; opicapone 25 mg, p=0.0106): -35.1 min
OFF-time change from baseline at the end of the open-label phase ([1]; opicapone 50 mg throughout double-blind and open-label treatment): -141.1 min
mean treatment effect versus placebo on absolute daily OFF-time ([1]; opicapone 50 mg, p<0.0001): -58.1 min
placebo-adjusted reduction of OFF time ([1]; opicapone 50 mg, onset of motor fluctuations within the previous 2 years, p=0.0003): -68.5 min
placebo-adjusted mean reduction of OFF time ([1]; opicapone 50 mg, patients only taking levodopa at baseline, p=0.02): -65.6 min
placebo-adjusted reduction of OFF time ([1]; opicapone 50 mg, patients taking less than 600 mg of levodopa per day, p=0.0005): -75.5 min
MDS-UPDRS Part III total score, change from baseline, LS mean, estimates from MMRM ([2]; OPC 50 mg once daily + L-DOPA/DDCI, Week 24): −6.5
MDS-UPDRS Part III total score, Change from Baseline, Mean ([2]; OPC 50 mg once daily + L-DOPA/DDCI, baseline to 24 weeks): −5.8
MDS-UPDRS Part III total score, Week 24, Mean ([2]; OPC 50 mg once daily + L-DOPA/DDCI, double-blind, Week 24, N = 176): 27.2
MDS-UPDRS Part III total score, LS Mean Diff. (SE) vs placebo, MMRM ([2]; OPC 50 mg vs placebo, Week 2): −0.8 (0.8)
MDS-UPDRS Part II + III total score, LS Mean Diff. (SE) vs placebo ([2]; OPC 50 mg vs placebo, Week 4): −1.4 (0.9)
MDS-UPDRS Part II total score, LS Mean Diff. (SE) vs placebo ([2]; OPC 50 mg vs placebo, Week 4): −0.2 (0.3)
MDS-UPDRS Part III total score, LS Mean Diff. (SE) vs placebo, MMRM ([2]; OPC 50 mg vs placebo, Week 4): −1.2 (0.8)
MDS-UPDRS Part II + III total score, LS Mean Diff. (SE) vs placebo ([2]; OPC 50 mg vs placebo, Week 12): −1.7 (1.06)
MDS-UPDRS Part II total score, LS Mean Diff. (SE) vs placebo ([2]; OPC 50 mg vs placebo, Week 12): −0.2 (0.4)
MDS-UPDRS Part III total score, LS Mean Diff. (SE) vs placebo, MMRM ([2]; OPC 50 mg vs placebo, Week 12): −1.7 (0.9)
MDS-UPDRS Part I total score, LS Mean Diff. (SE) vs placebo ([2]; OPC 50 mg vs placebo, Week 24): −0.2 (0.4)
MDS-UPDRS Part II + III total score, LS Mean Diff. (SE) vs placebo ([2]; OPC 50 mg vs placebo, Week 24): −2.8 (1.3)
MDS-UPDRS Part II total score, LS Mean Diff. (SE) vs placebo ([2]; OPC 50 mg vs placebo, Week 24): −0.7 (0.4)
MDS-UPDRS Part III total score, LS Mean Diff. (SE) vs placebo, MMRM ([2]; OPC 50 mg vs placebo, Week 24): −2.2 (0.9)
MDS-UPDRS Part IV total score, LS Mean Diff. (SE) vs placebo ([2]; OPC 50 mg vs placebo, Week 24): −0.11 (0.1)
PDQ-39 total score, LS Mean Diff. (SE) vs placebo ([2]; OPC 50 mg vs placebo, Week 24): −0.26 (0.77)
PDSS-2 total score, LS Mean Diff. (SE) vs placebo ([2]; OPC 50 mg vs placebo, Week 24): −1.5 (0.7)
MDS-UPDRS Part III total score, Change to Week 2, LS mean ([2]; OPC 50 mg, Week 2): −4.6
MDS-UPDRS Part II + III total score, Change to Week 4, LS mean ([2]; OPC 50 mg, Week 4): −7.3
MDS-UPDRS Part II total score, Change to Week 4, LS mean ([2]; OPC 50 mg, Week 4): −0.8
MDS-UPDRS Part III total score, Change to Week 4, LS mean ([2]; OPC 50 mg, Week 4): −6.0
MDS-UPDRS Part II + III total score, Change to Week 12, LS mean ([2]; OPC 50 mg, Week 12): −7.4
MDS-UPDRS Part II total score, Change to Week 12, LS mean ([2]; OPC 50 mg, Week 12): −0.7
MDS-UPDRS Part III total score, Change to Week 12, LS mean ([2]; OPC 50 mg, Week 12): −6.2
MDS-UPDRS Part I total score, change from baseline, LS mean, MMRM ([2]; OPC 50 mg, Week 24): 0.4
MDS-UPDRS Part II + III total score, change from baseline, LS mean, MMRM ([2]; OPC 50 mg, Week 24): −7.4
MDS-UPDRS Part II total score, change from baseline, LS mean, MMRM ([2]; OPC 50 mg, Week 24): −0.4
MDS-UPDRS Part IV total score, change from baseline, LS mean (SE), MMRM ([2]; OPC 50 mg, Week 24): 0.3 (0.1)
NMSS, change from baseline, LS mean, MMRM ([2]; OPC 50 mg, Week 24): −1.4
PDQ-39 total score, change from baseline, LS mean, MMRM ([2]; OPC 50 mg, Week 24): 0.42
PDSS-2 total score, change from baseline, LS mean, MMRM ([2]; OPC 50 mg, Week 24): 0.0
MDS-UPDRS Part I total score, Week 24, Mean ([2]; OPC 50 mg, Week 24, N = 176): 6.7
MDS-UPDRS Part II + III total score, Week 24, Mean ([2]; OPC 50 mg, Week 24, N = 176): 35.7
MDS-UPDRS Part II total score, Week 24, Mean ([2]; OPC 50 mg, Week 24, N = 176): 8.5
MDS-UPDRS Part IV total score, Week 24, Mean (SD) ([2]; OPC 50 mg, Week 24, N = 176): 0.2 (0.8)
NMSS, Week 24, Mean ([2]; OPC 50 mg, Week 24, N = 176): 15.9
PDQ-39 total score, Week 24, Mean ([2]; OPC 50 mg, Week 24, N = 176): 15.4
PDSS-2 total score, Week 24, Mean ([2]; OPC 50 mg, Week 24, N = 176): 11.6
MDS-UPDRS Part I total score, Change from Baseline, Mean ([2]; OPC 50 mg, baseline to week 24): 0.3
MDS-UPDRS Part II + III total score, Change from Baseline, Mean ([2]; OPC 50 mg, baseline to week 24): −6.2
MDS-UPDRS Part II total score, Change from Baseline, Mean ([2]; OPC 50 mg, baseline to week 24): −0.4
MDS-UPDRS Part IV total score, Change from Baseline, Mean (SD) ([2]; OPC 50 mg, baseline to week 24): 0.2 (0.8)
NMSS, Change from Baseline, Mean ([2]; OPC 50 mg, baseline to week 24): −3.0
PDQ-39 total score, Change from Baseline, Mean ([2]; OPC 50 mg, baseline to week 24): −0.29
PDSS-2 total score, Change from Baseline, Mean ([2]; OPC 50 mg, baseline to week 24): −0.4
symptomatic reduction in MDS-UPDRS Part III total score compared to placebo ([2]; baseline to end of double-blind period, p=0.010): 2.2 points
symptomatic reduction in MDS-UPDRS Part II+III total score compared to placebo ([2]; baseline to end of double-blind period, p=0.036): 2.8 points
magnitude of the changes in MDS-UPDRS Part I, MDS-UPDRS Part IV or PDQ-39 total scores ([2]; both groups (opicapone and placebo), double-blind period): less than 0.4 points
NMSS Domain 7 (urinary) subdomain score vs placebo ([2]; especially at Week 12 and Week 24 (p<0.05)): Significant improvements
proportion of patients who reported motor complications ([2]; opicapone 50 mg, end of 24-week double-blind period): 5.5%
proportion of patients reporting an improvement in their clinical condition (PGI-I score) ([2]; opicapone 50 mg, end of double-blind period, p=0.026 vs placebo): 57.9%
proportion of patients with an improvement in clinical condition assessed by a clinician (CGI-I score) ([2]; opicapone 50 mg, end of double-blind period, p=0.493 vs placebo): 50.3%
WOQ-9: proportion of subjects whose dexterity improved post-study medication ([2]; opicapone treated group): 56.6%
WOQ-9: proportion of subjects whose muscle cramping improved post-study medication ([2]; opicapone treated group): 28.3%
WOQ-9: proportion of subjects whose slowness of movement improved post-study medication ([2]; opicapone treated group): 66.2%
WOQ-9: proportion of subjects whose stiffness improved post-study medication ([2]; opicapone treated group): 56.9%
WOQ-9: proportion of subjects whose tremors improved post-study medication ([2]; opicapone treated group): 65.5%
treatment difference in OFF time for opicapone 50 mg versus entacapone ([3]; p=0.05): 26.2 min
additional OFF-time reduction after switch from entacapone ([3]; patients that ended open-label with opicapone 50 mg): 68 min
brain levodopa levels [4]: sustained increase in brain levodopa levels
TEAE COVID-19; % [5]: (8.5) %
TEAE COVID-19; n [5]: 15
motor function in MPTP treated parkinsonian primates [6]: improvement in motor function
